For one assay, the system named is 349418-098-R-PDC complex spheroid growth. The assay can be described thus: Anticancer human tumor 349418-098-R-PDC patient-derived lung adenocarcinoma cell line growth inhibition [AhR]. As to conditions: second compound 1 µM; first compound 0.01 µM; active compounds read low. In a few lines: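 Complex tumor spheroids co-cultured with HUVEC and human MSC stroma; AhR antagonists tested in combination with standard-of-care and investigational agents. Top concentration at or near clinical Cmax (else 10 microM), half-log dilutions; growth expressed as percent test/control.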
As for `CC1COCCN1c1cc(-c2ccnn2C)c2ccnc(-c3ccn[nH]3)c2n1` (centres undefined) + CC(CO)NC(=O)c1cc(-c2ccc(Cl)cc2)nn(-c2cnn(C)c2)c1=O, the viability, T/C was 128%.
In the case of `Nc1ncn(C2CC(O)C(CO)O2)c(=O)n1` (centres undefined) + Cc1ccccc1N=Nc1ccc(NC(=O)c2ccnn2C)c(C)c1, the viability, T/C was 99.2%.

Staying with this assay, now noted: second compound 1 µM; first compound 0.0316 µM; active compounds read low.
As for `CC(C)c1c(-c2ccccc2)nc2c(C#N)c[nH]n2c1=O` + CC(CO)NC(=O)c1cc(-c2ccc(Cl)cc2)nn(-c2cnn(C)c2)c1=O, the viability, T/C is 91.3%.
Same read-out and setting: then `CC1COCCN1c1cc(-c2ccnn2C)c2ccnc(-c3ccn[nH]3)c2n1` (centres undefined) + CC(CO)NC(=O)c1cc(-c2ccc(Cl)cc2)nn(-c2cnn(C)c2)c1=O, with 91.6%; and `COc1ccc([C@@H](O)c2cc(-c3ncnc4cc(N5CCOCC5)ccc34)c(F)cc2Cl)nn1` + CC(CO)NC(=O)c1cc(-c2ccc(Cl)cc2)nn(-c2cnn(C)c2)c1=O, with 96.9%; and `COc1cccc2c1C(=O)c1c(O)c3c(c(O)c1C2=O)CC(O)(C(=O)CO)CC3OC1CC(N)C(O)C(C)O1` (centres undefined) + Cc1ccccc1N=Nc1ccc(NC(=O)c2ccnn2C)c(C)c1, with 24.3%.
Same read-out and setting: for `Nc1ncn(C2CC(O)C(CO)O2)c(=O)n1` (centres undefined) + Cc1ccccc1N=Nc1ccc(NC(=O)c2ccnn2C)c(C)c1 the value was 69.9%.

The assay is the same for the next values; noted with them: second compound 1 µM; first compound 0.1 µM; active compounds read low.
Turning to `CC(C)c1c(-c2ccccc2)nc2c(C#N)c[nH]n2c1=O` + CC(CO)NC(=O)c1cc(-c2ccc(Cl)cc2)nn(-c2cnn(C)c2)c1=O, the viability, T/C was 70.7%.
The same measure, in the same setting: then `CC1COCCN1c1cc(-c2ccnn2C)c2ccnc(-c3ccn[nH]3)c2n1` (centres undefined) + CC(CO)NC(=O)c1cc(-c2ccc(Cl)cc2)nn(-c2cnn(C)c2)c1=O, with 42.2%.
Same read-out and setting: for `COc1ccc([C@@H](O)c2cc(-c3ncnc4cc(N5CCOCC5)ccc34)c(F)cc2Cl)nn1` + CC(CO)NC(=O)c1cc(-c2ccc(Cl)cc2)nn(-c2cnn(C)c2)c1=O the value was 119%; for `COc1cccc2c1C(=O)c1c(O)c3c(c(O)c1C2=O)CC(O)(C(=O)CO)CC3OC1CC(N)C(O)C(C)O1` (centres undefined) + Cc1ccccc1N=Nc1ccc(NC(=O)c2ccnn2C)c(C)c1, 19.2%; for `Nc1ncn(C2CC(O)C(CO)O2)c(=O)n1` (centres undefined) + Cc1ccccc1N=Nc1ccc(NC(=O)c2ccnn2C)c(C)c1, 51.8%.

Staying with this assay, now noted: second compound 1 µM; first compound 0.316 µM; active compounds read low.
Turning to `CC(C)c1c(-c2ccccc2)nc2c(C#N)c[nH]n2c1=O` + CC(CO)NC(=O)c1cc(-c2ccc(Cl)cc2)nn(-c2cnn(C)c2)c1=O, the viability, T/C is 88.3%.
Still for that read-out and setting: for `CC1COCCN1c1cc(-c2ccnn2C)c2ccnc(-c3ccn[nH]3)c2n1` (centres undefined) + CC(CO)NC(=O)c1cc(-c2ccc(Cl)cc2)nn(-c2cnn(C)c2)c1=O the value was 16.6%; for `COc1ccc([C@@H](O)c2cc(-c3ncnc4cc(N5CCOCC5)ccc34)c(F)cc2Cl)nn1` + CC(CO)NC(=O)c1cc(-c2ccc(Cl)cc2)nn(-c2cnn(C)c2)c1=O, 97.1%.
Same read-out and setting: for `COc1cccc2c1C(=O)c1c(O)c3c(c(O)c1C2=O)CC(O)(C(=O)CO)CC3OC1CC(N)C(O)C(C)O1` (centres undefined) + Cc1ccccc1N=Nc1ccc(NC(=O)c2ccnn2C)c(C)c1 the value was 6.34%; for `Nc1ncn(C2CC(O)C(CO)O2)c(=O)n1` (centres undefined) + Cc1ccccc1N=Nc1ccc(NC(=O)c2ccnn2C)c(C)c1, 44%.

The assay is the same for the next values; noted with them: second compound 1 µM; first compound 1 µM; active compounds read low.
For `CC(C)c1c(-c2ccccc2)nc2c(C#N)c[nH]n2c1=O` + CC(CO)NC(=O)c1cc(-c2ccc(Cl)cc2)nn(-c2cnn(C)c2)c1=O, the viability, T/C was 67.1%.
Still for that read-out and setting: then `CC1COCCN1c1cc(-c2ccnn2C)c2ccnc(-c3ccn[nH]3)c2n1` (centres undefined) + CC(CO)NC(=O)c1cc(-c2ccc(Cl)cc2)nn(-c2cnn(C)c2)c1=O, with 10.9%; and `COc1ccc([C@@H](O)c2cc(-c3ncnc4cc(N5CCOCC5)ccc34)c(F)cc2Cl)nn1` + CC(CO)NC(=O)c1cc(-c2ccc(Cl)cc2)nn(-c2cnn(C)c2)c1=O, with 41%.
Still for that read-out and setting: then `COc1cccc2c1C(=O)c1c(O)c3c(c(O)c1C2=O)CC(O)(C(=O)CO)CC3OC1CC(N)C(O)C(C)O1` (centres undefined) + Cc1ccccc1N=Nc1ccc(NC(=O)c2ccnn2C)c(C)c1, with 0.81%.
The same measure, in the same setting: for `Nc1ncn(C2CC(O)C(CO)O2)c(=O)n1` (centres undefined) + Cc1ccccc1N=Nc1ccc(NC(=O)c2ccnn2C)c(C)c1 the value was 34%.

The same assay, now with this note: second compound 1 µM; first compound 3.16 µM; active compounds read low.
Take `CC(C)c1c(-c2ccccc2)nc2c(C#N)c[nH]n2c1=O` + CC(CO)NC(=O)c1cc(-c2ccc(Cl)cc2)nn(-c2cnn(C)c2)c1=O: the viability, T/C was 58.2%.
Take `COc1ccc([C@@H](O)c2cc(-c3ncnc4cc(N5CCOCC5)ccc34)c(F)cc2Cl)nn1` + CC(CO)NC(=O)c1cc(-c2ccc(Cl)cc2)nn(-c2cnn(C)c2)c1=O: the viability, T/C is 41.2%.
The same measure, in the same setting: then `COc1cccc2c1C(=O)c1c(O)c3c(c(O)c1C2=O)CC(O)(C(=O)CO)CC3OC1CC(N)C(O)C(C)O1` (centres undefined) + Cc1ccccc1N=Nc1ccc(NC(=O)c2ccnn2C)c(C)c1, with 4.84%.

Staying with this assay, now noted: second compound 1 µM; first compound 10 µM; active compounds read low.
Regarding `CC(C)c1c(-c2ccccc2)nc2c(C#N)c[nH]n2c1=O` + CC(CO)NC(=O)c1cc(-c2ccc(Cl)cc2)nn(-c2cnn(C)c2)c1=O, the viability, T/C was 70.3%.
The same measure, in the same setting: for `COc1ccc([C@@H](O)c2cc(-c3ncnc4cc(N5CCOCC5)ccc34)c(F)cc2Cl)nn1` + CC(CO)NC(=O)c1cc(-c2ccc(Cl)cc2)nn(-c2cnn(C)c2)c1=O the value was 13.2%.
Same read-out and setting: then `COc1cccc2c1C(=O)c1c(O)c3c(c(O)c1C2=O)CC(O)(C(=O)CO)CC3OC1CC(N)C(O)C(C)O1` (centres undefined) + Cc1ccccc1N=Nc1ccc(NC(=O)c2ccnn2C)c(C)c1, with 6.54%.

The assay is the same for the next values; noted with them: second compound 3.16 µM; first compound 0.00316 µM; active compounds read low.
On to `CC1COCCN1c1cc(-c2ccnn2C)c2ccnc(-c3ccn[nH]3)c2n1` (centres undefined) + CC(CO)NC(=O)c1cc(-c2ccc(Cl)cc2)nn(-c2cnn(C)c2)c1=O, for which the viability, T/C was 67.7%.
Take `Nc1ncn(C2CC(O)C(CO)O2)c(=O)n1` (centres undefined) + Cc1ccccc1N=Nc1ccc(NC(=O)c2ccnn2C)c(C)c1: the viability, T/C was 91.1%.

Still in this assay, the particulars now being: second compound 3.16 µM; first compound 0.01 µM; active compounds read low.
For the molecule `CC1COCCN1c1cc(-c2ccnn2C)c2ccnc(-c3ccn[nH]3)c2n1` (centres undefined) + CC(CO)NC(=O)c1cc(-c2ccc(Cl)cc2)nn(-c2cnn(C)c2)c1=O, the viability, T/C was 96.1%.
Take `Nc1ncn(C2CC(O)C(CO)O2)c(=O)n1` (centres undefined) + Cc1ccccc1N=Nc1ccc(NC(=O)c2ccnn2C)c(C)c1: the viability, T/C was 74.4%.

Staying with this assay, now noted: second compound 3.16 µM; first compound 0.0316 µM; active compounds read low.
On to `CC(C)c1c(-c2ccccc2)nc2c(C#N)c[nH]n2c1=O` + CC(CO)NC(=O)c1cc(-c2ccc(Cl)cc2)nn(-c2cnn(C)c2)c1=O, for which the viability, T/C is 70.3%.
The same measure, in the same setting: then `CC1COCCN1c1cc(-c2ccnn2C)c2ccnc(-c3ccn[nH]3)c2n1` (centres undefined) + CC(CO)NC(=O)c1cc(-c2ccc(Cl)cc2)nn(-c2cnn(C)c2)c1=O, with 85.3%; and `COc1ccc([C@@H](O)c2cc(-c3ncnc4cc(N5CCOCC5)ccc34)c(F)cc2Cl)nn1` + CC(CO)NC(=O)c1cc(-c2ccc(Cl)cc2)nn(-c2cnn(C)c2)c1=O, with 66.2%.
The same measure, in the same setting: then `COc1cccc2c1C(=O)c1c(O)c3c(c(O)c1C2=O)CC(O)(C(=O)CO)CC3OC1CC(N)C(O)C(C)O1` (centres undefined) + Cc1ccccc1N=Nc1ccc(NC(=O)c2ccnn2C)c(C)c1, with 23.6%; and `Nc1ncn(C2CC(O)C(CO)O2)c(=O)n1` (centres undefined) + Cc1ccccc1N=Nc1ccc(NC(=O)c2ccnn2C)c(C)c1, with 61%.

Staying with this assay, now noted: second compound 3.16 µM; first compound 0.1 µM; active compounds read low.
On to `CC(C)c1c(-c2ccccc2)nc2c(C#N)c[nH]n2c1=O` + CC(CO)NC(=O)c1cc(-c2ccc(Cl)cc2)nn(-c2cnn(C)c2)c1=O, for which the viability, T/C was 86.2%.
As to `CC1COCCN1c1cc(-c2ccnn2C)c2ccnc(-c3ccn[nH]3)c2n1` (centres undefined) + CC(CO)NC(=O)c1cc(-c2ccc(Cl)cc2)nn(-c2cnn(C)c2)c1=O, the viability, T/C is 32.8%.
Regarding `COc1ccc([C@@H](O)c2cc(-c3ncnc4cc(N5CCOCC5)ccc34)c(F)cc2Cl)nn1` + CC(CO)NC(=O)c1cc(-c2ccc(Cl)cc2)nn(-c2cnn(C)c2)c1=O, the viability, T/C is 85.8%.
On the same count and under the same terms, then `COc1cccc2c1C(=O)c1c(O)c3c(c(O)c1C2=O)CC(O)(C(=O)CO)CC3OC1CC(N)C(O)C(C)O1` (centres undefined) + Cc1ccccc1N=Nc1ccc(NC(=O)c2ccnn2C)c(C)c1, with 18%; and `Nc1ncn(C2CC(O)C(CO)O2)c(=O)n1` (centres undefined) + Cc1ccccc1N=Nc1ccc(NC(=O)c2ccnn2C)c(C)c1, with 42.2%.

The assay is the same for the next values; noted with them: second compound 3.16 µM; first compound 0.316 µM; active compounds read low.
As to `CC(C)c1c(-c2ccccc2)nc2c(C#N)c[nH]n2c1=O` + CC(CO)NC(=O)c1cc(-c2ccc(Cl)cc2)nn(-c2cnn(C)c2)c1=O, the viability, T/C was 71.8%.
On the same count and under the same terms, then `CC1COCCN1c1cc(-c2ccnn2C)c2ccnc(-c3ccn[nH]3)c2n1` (centres undefined) + CC(CO)NC(=O)c1cc(-c2ccc(Cl)cc2)nn(-c2cnn(C)c2)c1=O, with 15.8%.

The values above are taken from PubChem BioAssay AID1918996 (Molecular Pharmacology Branch, DTP, NCI, 2023).
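Also: spheroids also contain HUVEC endothelial cells and human MSC stroma; spheroids exposed to agents for seven days before luminescence viability read.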
